Assay results taken from US20090156621A1, “HCV INHIBITORS” (priority 2004, published 2009).
Where a name gives a salt, the structure may show the parent alone.

Tested on: HCV genotype 1b strain Con1 replicon (ET replicon line, Huh7 cells)
Assay: HCV ET replicon luciferase assay
Format: cell-based
Settings: Hepatitis C virus, Huh-7; ET replicon line (Huh7 cells, HCV genotype 1b Con1 replicon), luciferase read-out, 72 hours; compounds in free or salt form
Description: Compounds of the current invention are believed useful in the treatment and/or prophylaxis of conditions and diseases associated with HcV infection. Activity mediated through HCV was determined using an ET replicon line.
The Materials used include a Medium comprised of DMEM (1× liquid, high glucose); Invitrogen cat# 11965-092; 100×Penicillin/Streptomycin solution (10,000 Units/mL); Invitrogen cat# 15140-122; 100×Non-essential amino acid solution (10 mM); Invitrogen cat# 11140-050; Fetal bovine serum; JRH Biosciences cat# 12107-500M; Geneticin (50 mg/mL); Invitrogen cat# 10131-035
The Luciferase assay reagents include Steady-Glo Luciferase assay system, cat# E2550 (Promega)
The ET replicon line (see Lohmann et al. (1999), Replication of subgenomic hepatitis C virus RNAs in a hepatoma cell line. Science 285:110-113; Krieger et al. (2001), Enhancement of hepatitis C virus RNA replication by cell culture-adaptive mutations. J. Virol. 75: 4614-4624; and Vrolijk et al. (2003), A replicon-based bioassay for the measurement of interferons in patients with chronic hepatitis C. J. Virol. Meth. 110: 201-209, each herein incorporated by reference with regard to the ET replicon line), includes Huh7 cells stably transfected with HCV genotype 1b strain Con1 replicon. This replicon expresses the firefly luciferase, has the coding region for ubiquitin inserted upstream of the neomycin gene, and carries three cell culture-adaptive mutations that enhance RNA replication cooperatively (E1202G, T1280I, and S2197P). The ET cell line was obtained under license from: ReBLikon GmbH, Nach dem alten Schloss 22, 55239 Gau-Odernheim, Germany.
Cells are maintained at 37° C., 5% CO2, in DMEM with 10% FCS, 1× penicillin/streptomycin, 1× non-essential amino acids, 0.5 mg/mL Geneticin. For passage, cells are washed once with PBS, and incubated at 37° C. with sufficient trypsin (0.05%)/versene to cover the monolayer. Once detached from the flask, cells are mixed with several mLs of DMEM+10% FBS to inactivate the trypsin, then diluted appropriately (usually 1 in 5 or 1 in 10) with sufficient medium to pass to a new flask. For a T225 flask, 40-50 mLs total volume of cells+medium is typically used. To prevent the density dependent drop in replicon RNA, the ET cell line is maintained at sub-confluent (60-80%) levels.
Compounds are diluted in DMSO across the first 10 wells of a Costar V-bottom 96-well plate using a Biomek 2000 Workstation (Beckman-Coulter), with 0.5 log10 dilution intervals. DMSO only is added to the last two columns of the plate. The top concentration of drug in this master plate is typically 2.5 mM. A 1/5 dilution of the compounds is made by adding DMEM+10% FBS with a multichannel pipettor, giving a top concentration of 500 μM. 5 μL of diluted compounds is transferred into black Costar flat bottom 96-well daughter plates using a RapidPlate workstation (Zymark).
Cells are grown to approximately 80% confluency and trypsinised as described above. Cells are counted in a Levy Hemocytometer and diluted to 20,000 cells/ml in DMEM containing 10% FBS, 1× penicillin/streptomycin, 1×NEAAs. (Note: Geneticin is omitted for the assay).
245 μL cell suspension is added to the first 11 columns of the daughter plates prepared as above using a Multidrop dispenser (Titertek). Thus, 5,000 cells are added per well, and the final top concentration of each compound is 10 μM. The twelfth column of each plate is used to generate background readings for the assay. […]

Row | SMILES | IC50 [nM]
1 | Brc1ccc2[nH]c3c(c2c1)CCCC3Nc1ccccc1 (centres unmarked) [Example 13, 6-Bromo-N-Phenyl-2,3,4,9-tetrahydro-1H-carbazol-1-amine] | 10
2 | Clc1ccc2[nH]c3c(c2c1)CCCC3Nc1ccccc1 (centres unmarked) [Example 14, 6-Chloro-N-phenyl-2,3,4,9-tetrahydro-1H-carbazol-1-amine] | 5
3 | Clc1ccc2[nH]c3c(c2c1)CCCC3Nc1ncccn1 (centres unmarked) [Example 23, 6-Chloro-N-pyrimidin-2-yl-2,3,4,9-tetrahydro-1H-carbazol-1-amine] | 52
4 | Brc1ccc2[nH]c3c(c2c1)CCCC3Nc1ccccn1 (centres unmarked) [Example 27, 6-Bromo-N-pyridin-2-yl-2,3,4,9-tetrahydro-1H-carbazol-1-amine Hydrochloride] | 8
5 | Brc1ccc2[nH]c3c(c2c1)CCCCC3Nc1ncccn1 (centres unmarked) [Example 38, 2-Bromo-N-pyrimidin-2-yl-5,6,7,8,9,10-hexahydrocyclohepta[b]indol-6-amine] | 39
